Laboratory results taken from patent publication US20250304567A1, “PYRROLIDIONE DERIVATIVES AS INHIBITORS OF NF KAPPA B INDUCING KINASE” (priority 2022, published 2025).

Tests used:
[1] = target: Recombinant Human NF-kappaB-Inducing Kinase (NIK/MAP3K14) (Homo sapiens, UniProt Q99558); experiment: Inhibition of auto-phosphorylation of recombinant human NIK/MAP3K14 activity (AlphaScreen); format: biochemical; settings: 5 μM ATP, 1 nM NIK, average if tested more than once
In short: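 GST-tagged NIK (1 nM) auto-phosphorylation with 5 μM ATP, 2 h at 25 °C, pH 7.5 Tris buffer, 0.7% DMSO; stopped with anti-phospho-IKK Ser176/180 antibody and read by AlphaScreen. Signal normalized to full-activity and no-enzyme/no-ATP controls; IC50 from sigmoidal fit of % inhibition vs log concentration.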

[2] = test system: p-IKKa levels in L363 (NIK translocated multiple myeloma) cells; experiment: Effect of compounds on p-IKKa levels in L363 (NIK translocated multiple myeloma) cells (AlphaLISA SureFire Ultra p-IKKa Ser176/180); format: cell-based, human; settings: Homo sapiens, L-363, p-IKKa levels in L363 cells; average if tested more than once; read-out: Assay 2 IC50
In short: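 L363 multiple myeloma cells, BAFF-stimulated overnight (250 ng/ml), then 6 h at 37 °C with compound (11-point 1:3 series, 0.3% DMSO) plus BAFF and 10 μM MG132. p-IKKa Ser176/180 read by AlphaLISA SureFire Ultra; IC50 from sigmoidal fit normalised to stimulated and unstimulated controls.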

Chain of Recombinant Human NF-kappaB-Inducing Kinase (NIK/MAP3K14) (Q99558 whole entry): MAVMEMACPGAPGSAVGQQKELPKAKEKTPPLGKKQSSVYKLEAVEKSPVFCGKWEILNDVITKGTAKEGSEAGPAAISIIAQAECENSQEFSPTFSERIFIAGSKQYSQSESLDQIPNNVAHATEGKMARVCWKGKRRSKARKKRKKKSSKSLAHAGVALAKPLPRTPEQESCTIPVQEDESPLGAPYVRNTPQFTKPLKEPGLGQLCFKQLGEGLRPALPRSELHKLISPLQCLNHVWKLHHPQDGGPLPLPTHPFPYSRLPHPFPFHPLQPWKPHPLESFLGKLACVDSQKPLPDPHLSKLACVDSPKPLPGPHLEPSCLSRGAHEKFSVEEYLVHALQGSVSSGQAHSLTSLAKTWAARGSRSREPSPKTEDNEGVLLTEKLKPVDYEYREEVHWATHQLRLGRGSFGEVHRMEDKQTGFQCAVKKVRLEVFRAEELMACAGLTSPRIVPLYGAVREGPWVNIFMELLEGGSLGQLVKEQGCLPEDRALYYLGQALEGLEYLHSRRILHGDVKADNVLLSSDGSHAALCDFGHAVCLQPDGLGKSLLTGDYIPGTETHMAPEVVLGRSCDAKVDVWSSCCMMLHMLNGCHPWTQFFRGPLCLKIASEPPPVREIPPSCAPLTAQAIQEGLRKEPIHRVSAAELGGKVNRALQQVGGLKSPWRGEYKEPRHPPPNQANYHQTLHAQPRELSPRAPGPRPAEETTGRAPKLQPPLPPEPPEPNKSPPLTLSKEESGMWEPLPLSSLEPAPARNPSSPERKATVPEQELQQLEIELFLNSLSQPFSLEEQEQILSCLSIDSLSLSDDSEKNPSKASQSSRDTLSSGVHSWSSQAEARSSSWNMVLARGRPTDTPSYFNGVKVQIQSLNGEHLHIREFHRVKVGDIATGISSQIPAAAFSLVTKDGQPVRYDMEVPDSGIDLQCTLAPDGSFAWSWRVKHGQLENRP

Row | SMILES | IC50 [1] [nM] | IC50 [2] [nM]
1 | CN1CC[C@@](O)(c2cccc(-c3nc(-c4ccnc(Nc5cc(C6CC6)nn5C)n4)cs3)c2)C1=O [Example 164, (R)-3-(3-(4-(2-((3-Cyclopropyl-1-methyl-1H-pyrazol-5-yl)amino)pyrimidin-4-yl)thiazol-2-yl)phenyl)-3-hydroxy-1-methylpyrrolidin-2-one] | < 100 | 100 to 500
2 | COc1nn(CC(F)F)cc1Nc1nccc(-n2ccc(-c3cc([C@]4(O)CCN(C)C4=O)ccn3)n2)n1 (single isomer, unassigned) [Example 155, (R)-3-(2-(1-(2-((1-(2,2-difluoroethyl)-3-methoxy-1H-pyrazol-4-yl)amino)pyrimidin-4-yl)-1H-pyrazol-3-yl)pyridin-4-yl)-3-hydroxy-1-methylpyrrolidin-2-one or (S)-3-(2-(1-(2-((1-(2,2-difluoroethyl)-3-methoxy-1H-pyrazol-4-yl)amino)pyrimidin-4-yl)-1H-pyrazol-3-yl)pyridin-4-yl)-3-hydroxy-1-methylpyrrolidin-2-one] | < 100 | < 100
3 | CN1CC[C@@](O)(c2cncc(-c3ccn(-c4ccnc(Nc5ccn(C)n5)n4)n3)c2)C1=O (single isomer, unassigned) [Example 147, (R)-3-hydroxy-1-methyl-3-(5-(1-(2-((1-methyl-1H-pyrazol-3-yl)amino)pyrimidin-4-yl)-1H-pyrazol-3-yl)pyridin-3-yl)pyrrolidin-2-one or (S)-3-hydroxy-1-methyl-3-(5-(1-(2-((1-methyl-1H-pyrazol-3-yl)amino)pyrimidin-4-yl)-1H-pyrazol-3-yl)pyridin-3-yl)pyrrolidin-2-one] | < 100 | 100 to 500
4 | CN1CC[C@@](O)(c2cccc(-c3nc(-c4ccnc(Nc5cc6ccccn6n5)n4)cs3)c2)C1=O [Example 277, (R)-3-Hydroxy-1-methyl-3-(3-(4-(2-(pyrazolo[1,5-a]pyridin-2-ylamino)pyrimidin-4-yl)thiazol-2-yl)phenyl)pyrrolidin-2-one] | 100 to 500 | > 501
5 | Cc1nn(C)cc1Nc1nccc(-c2csc(-c3cccc([C@]4(O)CCN(C)C4=O)c3)n2)n1 [Example 269, (R)-3-(3-(4-(2-((1,3-dimethyl-1H-pyrazol-4-yl)amino)pyrimidin-4-yl)thiazol-2-yl)phenyl)-3-hydroxy-1-methylpyrrolidin-2-one] | < 100 | < 100
6 | CN1CC[C@@](O)(c2cccc(-c3csc(-c4ccnc(Nc5cnn(CC6CC6)c5)n4)n3)c2)C1=O [Example 20, (R)-3-(3-(2-(2-((1-(cyclopropylmethyl)-1H-pyrazol-4-yl)amino)pyrimidin-4-yl)thiazol-4-yl)phenyl)-3-hydroxy-1-methylpyrrolidin-2-one] | 100 to 500 | > 501
7 | CN1CC[C@@](O)(c2cccc(-c3nc(-c4ccnc(NC5(c6ccccn6)CC5)n4)cs3)c2)C1=O [Example 224] | 100 to 500 | > 501
8 | CN1CC[C@@](O)(c2cccc(-c3nc(-c4ccnc(Nc5cnn(CC6CC6)c5)n4)cs3)c2)C1=O [Example 287, (R)-3-(3-(4-(2-((1-(cyclopropylmethyl)-1H-pyrazol-4-yl)amino)pyrimidin-4-yl)thiazol-2-yl)phenyl)-3-hydroxy-1-methylpyrrolidin-2-one] | < 100 | 100 to 500
